Data: US20080113956A1, “Substituted Porphyrins” (priority 1997, published 2008)

Experiments:
[1] = Water solubility of the chloride salt; format: physicochemical; conditions: micelles were not observed
Experimental: The same procedure described above was used. 0.92 mL of 1-iodobutane (100 eq) was added and the mixture stirred at 100° C. for 7 days. […] The elemental analysis was thus performed on the hexafluorophosphate salt (non-viscous). The chlorine salt is water-soluble (micelles were not observed). UV(H2O) of the chloride salt, ε454.0 1.21×10^5 M^−1cm^−1. Elemental analysis, calcd. For MnC56H60N8P5F30.H2O: C (40.94), H (3.80), N (6.82); found: C (41.15), H (4.35), N (6.52).

[2] = system: DNA; test: SOD activity in vitro in the presence of DNA (DNA interaction); format: biochemical
Description: The “ortho effect” also decreases the toxicity. It is well known that porphyrins, and particularly cationic porphyrins, interact with DNA and can act as DNA cleavers. This fact can be an issue in the use of metallo-porphyrins as anti-tumor drugs. The present mimetics avoid this interaction.
In order to maximize the decrease in toxicity due to interaction with DNA, two derivatives of the ortho compound have been prepared which carry four ethyl or four butyl groups (“4” and “5”, respectively).

[3] = Electrochemistry: metal-centered redox potential; format: physicochemical; conditions: vs NHE; listed as 2
Experimental: Electrochemistry. The electrochemical characterization was performed as described previously on a Voltammetric Analyzer Model 600 (CH instrument) using a glassy carbon electrode (Ag/AgCl reference and Pt auxiliary electrodes), at 0.5 mM porphyrin, pH 7.8 (0.05 M phosphate buffer), 0.1 M NaCl. The potentials were standardized against potassium ferricyanide/potassium ferrocyanide couple (Batinic-Haberle et al, Arch. Biochem. Biophys. 343:225 (1997); Kolthof et al, J. Phys. Chem. 39:945 (1974)).
Electrochemistry. The metal-centered redox behavior of all metalloporphyrin products was reversible. The half-wave potentials (E^O1/2) were calculated as the average of the cathodic and anodic peaks and are given in mV vs NHE (Table 5). The average shift per chlorine is +55 mV (Table 5), which is in agreement with the values previously reported for H2TPP derivatives (between −50 and +70 mV) (Sen et al, Chem. Soc. Faraday Trans. 93:4281 (1997); Autret et al. J. Chem. Soc. Dalton Trans. 2793 (1996); Hariprasad et al, J. Chem. Soc. Dalton Trans. 3429 (1996); Tagliatesta et al, Inorg. Chem. 35:5570 (1996); Ghosh, J. Am. Chem. Soc. 117:4691 (1995); Takeuchi et al, J. Am. Chem. Soc. 116:9730 (1994); Binstead et al, Inorg. Chem. 30:1259 (1991); Giraudeau et al, J. Am. Chem. Soc. 101:3857 (1979)). This shift appears to be higher (˜+65 mV) between 0 and 1, and between 2 and 3 chlorines (Table 5). […] The manganese redox state of MnCl4TE-2-PyP^5 (E^O1/2=+448 mV) and MnOBTMPyP^4+ (E^O1.2=+480 mV) is 3+ and 2+, respectively. This difference may be explained by their difference in terms of redox potential (˜30 mV) but also by structural considerations, for instance an increased distortion of the porphyrin ring in the case of MnOBTMPyP^4+. (Batinic-Haberle et al, Arch. Biochem. Biophys. 343:225 (1997); Ochsenbein et al, Angew. Chem. Int. Ed. Engl. 33:348 (1994)).

[4] = SOD-like activity in vitro (xanthine/xanthine oxidase, ferricytochrome c; McCord and Fridovich); format: biochemical; conditions: Example VII
Experimental: (§1) SOD activity can be monitored in the presence and absence of EDTA using the method of McCord and Fridovich (J. Biol. Chem. 244:6049 (1969)). The efficacy of a mimetic can also be determined by measuring the effect of the mimetic on the aerobic growth of a SOD null E. coli strain versus a parental strain lacking the specific mutations. Specifically, parental E. coli (AB1157) and SOD null E. coli. (JI132) can be grown in M9 medium containing 0.2% casamino acids and 0.2% glucose at pH 7.0 and 37° C.; growth can be monitored in terms of turbidity followed at 700 nm.
The superoxide dismutase activity of the mimetics of the invention depends on a number of factors, including thermodynamic factors (eg the metal-centered redox-potential see FIG. 1)), and kinetic factors (eg electrostatic facilitation).
Superoxide dismuting activity. The SOD-like activities were measured using the xanthine/xanthine oxidase system as a source of O2^− and ferricytochrome c as its indicating scavenger (McCord et al, J. Biol. Chem. 244:6049 (1969)). O2— was produced at the rate of 1.2 μM per minute and reduction of ferricytochrome c was followed at 550 nm. Assays were conducted in presence of 0.1 mM EDTA in 0.05 M phosphate buffer (pH 7.8). Rate constants for the reaction of the compounds were based upon competition with […] cytochrome c, kcyt c=2.6×10^5 M^−1s^−1 (Butler et al, J. Biol. Chem. 257:10747 (1982)). All measurements were done at 25° C. Cytochrome c concentration was at least 10^3-fold higher than the concentrations of the SOD mimics and the rates were linear for at least two minutes, during which the compounds intercepted ˜100 equivalents of O2^−, thus confirming the catalytic nature of O2^− dismutation in presence of the mimics.
Superoxide dismuting activities. SOD-like activities were measured as described previously, based on competition with cytochrome c (McCord et al, J. Biol. Chem. 244:6049 (1969)). MnClxTE-2-PyP^5+ SOD-like activities are reported in Table 5, IC50 (M) representing the concentration for one unit of activity (or the concentration that causes 50% inhibition of cytochrome c reduction by O2^−) and kcat (M^−1s^−1) representing the rate constant for the superoxide dismutation reaction. The SOD-like activity per mole of MnCl4TE-2-PyP^5 is approximately 2-, 7- and 100-fold higher than MnOBTMPyP^4+, MnTM-2-PyP^5+ and MnTM-4PyP^5+, respectively (Faulkner et al, J. Biol. Chem. 269:23471 (1994); Batinic-Haberle et al, Arch. Biochem. Biophys. 343:225 (1997); Batinic-Haberle et al, J. Biol. Chem. 273:24521 (1998)). The SOD-like activity of MnCl4TE-2-PyP^5+ represents 20% of the activity of the Cu,Zn-SOD enzyme on a molar basis (40% per active site considering that the enzyme has two active sites) (Klug-Roth et al, J. Am. Chem. Soc. 95:2786 (1973)).

[5] = system: SOD null E. coli (JI132); test: Aerobic growth of SOD null E. coli strain versus parental strain; format: cell-based
Experimental: FIG. 3. SOD activity in vivo (E. coli) of 1, 2, 3* and 4* (20 μM) in minimal medium (mixture of atropoisomers, JI=SOD deficient strain, AB parental strain).
as §1
The activity in vivo of the mimetics of the invention can be tested on an E. coli strain deleted of the genes coding for both the MnSOD and FeSOD. In this assay, the efficacy of a mimetic is determined by measuring the effect of the mimetic on the aerobic growth of a SOD null E. coli strain versus a parental strain. Specifically, parental E. coli (AB1157) and SOD null E. coli. (JI132) are grown in M9 medium containing 0.2% casamino acids and 0.2% glucose at pH 7.0 and 37° C.; growth is monitored in terms of turbidity followed at 700 nm.

Row | solubility in water [1] | Compound | toxicity due to interaction with DNA, comparison between ortho derivatives ([2]; Table 2 and FIG. 3) | E1/2 one-electron metal-centered redox-potential [3] | rate of dismutation (kcat) [4] | aerobic growth (A700) of SOD null E. coli cells ([5]; 20 μM, glucose minimal medium (M9) plus 5 essential amino acids, JI132, listed as 2) | toxicity in vivo (E. coli) ([5]; FIG. 3) | interaction with DNA ([2]; SOD activity in vitro in the presence of DNA)
1 | water-soluble | CCCC[n+]1ccccc1-c1c2nc(c(-c3cccc[n+]3CCCC)c3ccc([n-]3)c(-c3cccc[n+]3CCCC)c3nc(c(-c4cccc[n+]4CCCC)c4ccc1[n-]4)C=C3)C=C2.[Mn+3] [compound 5, manganic meso-tetrakis-(N-butylpyridinium-2-yl)porphyrin] | did not show a further decrease in toxicity | – | – | – | – | –
2 | – | manganese(III) 5,10,15,20-tetrakis(N-methylpyridyl)porphyrin [MnTM-3-PyP^5+] | – | +0.042 V | 4.1e+06 M⁻¹ s⁻¹ | increase in A700 | decreased toxicity | greatly decreased
